Experimental data: patent publication US11701341B2, “Use of 3-[5-amino-4-(3-cyanobenzoyl)-pyrazol-1-yl]-n-cyclopropyl-4-methylbenzamide in the treatment of acute exacerbations of chronic obstructive pulmonary disease” (MEREO BIOPHARMA 1 LIMITED, priority 2017, dated 2023)

Columns and labels:
fibrinogen = experiment: AETHER exploratory outcome: fibrinogen measured in patient blood; type: in vivo, human; settings: high and low dose over 5 days; including patients with <2% eosinophils; maximal at Day 7; FIG. 4
Source text: (§1) A Phase 2 trial (referred to as AETHER) was a double-blind, randomised, placebo-controlled clinical study investigating the use of BCT-197, on top of Standard of Care, for the treatment of patients with AECOPD. Standard of Care included the addition of steroids and/or antibiotics to a patient's chronic COPD medication and symptomatic bronchodilators. Following baseline assessment, 282 eligible patients were randomised to receive either two different dose regimens of BCT-197 or placebo (three doses over five days). The primary endpoint was a comparison of change in forced expiratory volume in 1 second (FEV1) from baseline to day 7 within each arm of the study.
(§2) Patients received one of two oral dosing regimens of 3-[5-amino-4-(3-cyanobenzoyl)-pyrazol-1-yl]-N-cyclopropyl-4-methylbenzamide or matching oral placebo administered according to the dosing schedules shown in Table 1.
(§3) A further exploratory outcome included over the treatment period to Day 5 and BCT197 systemic exposure (to Day 14) were the inflammatory biomarkers high sensitivity C-Reactive Protein (hsCRP) and fibrinogen measured in patient blood. […] This was maximal at Day 7 (FIGS. 3 and 4) coincident with the highest improvement in FEV1 (FIG. 2) in response to BCT197 in the same patient population with <2% eosinophils.

AECOPD = settings: single oral dose; cited from earlier work
patients with AECOPD = experiment: Phase 2 trial (AETHER): change in FEV1 from baseline to Day 7, on top of Standard of Care; type: in vivo, human; settings: for improvement in FEV1 (change from baseline to Day 7): sub-group with blood eosinophils <2%, oral, three doses over five days (Days 1, 3, 5), on top of Standard of Care, FIG. 1, FIG. 2
Source text: as §1
The trial assessed adult patients ≥40 years with an acute exacerbation of COPD (as defined by increase in symptoms of cough, and/or sputum and/or breathlessness that required addition of antibiotics and or systemic corticosteroids to their regular treatment).
Patients received one of two oral dosing regimens of 3-[5-amino-4-(3-cyanobenzoyl)-pyrazol-1-yl]-N-cyclopropyl-4-methylbenzamide or matching oral placebo administered according to the dosing schedules shown in Table 1. […]
Efficacy of treatment was measured by the primary endpoint of change in FEV1 from baseline (before treatment) to Day 7. Patients with COPD and low eosinophils (determined by blood percentages or absolute counts) are considered to be poorly responsive to treatment of acute exacerbations using known treatments.

[1] = test system: high sensitivity C-Reactive Protein (hsCRP); experiment: AETHER exploratory outcome: hsCRP measured in patient blood; type: in vivo, human; settings: high and low dose over 5 days; including patients with <2% eosinophils; maximal at Day 7; FIG. 3
Source text: as §1, §2, §3

Q: What does the source list for Cc1ccc(C(=O)NC2CC2)cc1-n1ncc(C(=O)c2cccc(C#N)c2)c1N [BCT197, 3-[5-Amino-4-(3-cyanobenzoyl)-pyrazol-1-yl]-N-cyclopropyl-4-methylbenzamide]?
A: reduction versus placebo in fibrinogen from baseline (fibrinogen): dose-dependent reduction; effect on recovery of AECOPD to the stable disease state (AECOPD): accelerates the recovery to the stable disease state; relative difference in FEV1 response versus standard of care alone (placebo arm) (patients with AECOPD; >2% eosinophil sub-population, FIG. 1): much less than in the low eosinophil group; improvement in FEV1 (change from baseline to Day 7) (patients with AECOPD): substantial and consistent improvement in FEV1; improvement in FEV1 (change from baseline to Day 7) (patients with AECOPD; listed as compound A): significant improvement; reduction versus placebo in hsCRP from baseline [1]: dose-dependent reduction
